TGI data for 30 molecules are collected here from PubChem BioAssay (NCI).

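The compound was tested at five concentrations on cells cultured in 96-well plates, with a 48-hour exposure period. TGI marks complete inhibition of growth.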

For one assay, the system named is MDA-N. As to the kind of experiment: NCI-60 cell line screen, 48 h.
`COc1ccc(C2(CC(C)O)SCCCS2)cc1` (stereo not given) showed a TGI greater than 100 µM.

Turning to `Clc1ccc(-c2nn3c(-c4ccncc4)nnc3s2)cc1`, the TGI is greater than 100 µM.

Take `O=C1/C(=C\c2cccc(Oc3ccccc3)c2)S(=O)(=O)C(c2ccccc2)N1Cc1ccccc1` (stereo not given): the TGI was found to be 95.5 µM.

On to `COc1ccc(C(OCC2OC(n3cc(C)c(=O)[nH]c3=O)CC2n2cc(Cn3cc(F)c(=O)[nH]c3=O)nn2)(c2ccccc2)c2ccccc2)cc1` (stereo not given), for which the TGI turned out to be 3.53 µM.

`Cc1ccccc1C(O)(c1nccn1C)c1nccn1C` registered a TGI greater than 100 µM.

With `C=CCn1c(=O)ccn(COCCO)c1=O`, the TGI was greater than 100 µM.

In turn, `Oc1ccccc1/C=N/c1nc2cc3sc(/N=C/c4ccccc4O)nc3cc2s1` gave a TGI greater than 100 µM.

`CCCCC1c2c([nH]c3ccccc23)C2C(=O)N(c3ccc(OC)cc3)C(=O)C2C1CCC` (stereo not given): the TGI was 7.45 µM.

In turn, `CCN(CC)CCOc1ccc(N2C(=O)c3cc(OC)c(OC)cc3C2=O)cc1` had a TGI greater than 100 µM.

On to `C(=N\NC1=NCCCN1)/c1ccc2ccccc2c1`, for which the TGI worked out at 22.5 µM.

For the molecule `O=C(N=Nc1cc(Cl)ccc1Cl)NNc1cc(Cl)ccc1Cl`, the TGI was found to be 84.4 µM.

The molecule `COc1ccc(C#CC(=O)O)c(OC)c1` gave a TGI greater than 100 µM.

The molecule `CCOC(=O)NC(=S)NN(C)C1=NCC(C)(C)S1` came in with a TGI greater than 100 µM.

In turn, `O=c1c2cc3c(cc2[nH]c2ncccc12)OCO3` gave a TGI greater than 10 µM.

`Cc1csc(-c2cn(C)c3c2C(=O)C(N)=CC3=O)n1`: the TGI was 45.2 µM.

The next assay deals with NCI-H522 lung. As to the kind of experiment: NCI-60 cell line screen, 48 h.
`O=P(c1ccccc1)(c1ccccc1)N1O[C@@H](c2ccccc2)C=C[C@H]1c1ccccc1` came in with a TGI of 24.5 µM.

The molecule `COC(=O)[C@]12CC[C@H]3CN(C(=O)OCc4ccccc4)[C@H]([C@H]31)[C@H](c1ccco1)N2S(=O)(=O)c1ccc(C)cc1` showed a TGI of 45.7 µM.

In turn, `CCCNC(=O)CCC(C)[C@H]1CCC2C3C(C[C@H](OC(C)=O)[C@@]21C)[C@@]1(C)CCC2(C[C@H]1C[C@H]3OC(C)=O)OOC1(CCC(C)CC1)OO2` (stereo not given in full) had a TGI of 33.3 µM.

In the case of `CCCn1c(CN(Cc2nc3ccccc3n2CCC)Cc2nc3ccccc3n2CCC)nc2ccccc21`, the TGI is greater than 59.9 µM.

For `CSc1c(C#N)c(N)n2c1C(=O)N(c1ccccc1)C2=S`, the TGI was found to be 57.7 µM.

The molecule `NNC(=O)c1ccc[n+](CCc2ccccc2)c1` yielded a TGI greater than 100 µM.

Turning to `COc1cc(NS(C)(=O)=O)ccc1N1Cc2cnc3ccc4[nH]c(C)cc1c4c23`, the TGI worked out at 80.7 µM.

Molecule `C=C[C@@H]1C(CO)=CCC2[C@H]1CCC1C(C)(C)C(=O)CC[C@]21C` (stereo not given in full) displayed a TGI greater than 100 µM.

For `COc1ccc2cc3c4cc5c(cc4cc[n+]3cc2c1OC)OCO5`, the TGI was 21.5 µM.

Take `CCN(CCO)CC1COc2ccccc2O1` (stereo not given): the TGI is greater than 100 µM.

Consider `C/C(CC1C2CCCC1C2)=N\NC(N)=O` (stereo not given), for which the TGI was greater than 100 µM.

In turn, `N#CC(C#N)=CNC(=S)c1ccncc1` displayed a TGI greater than 100 µM.

In turn, `O=c1cc(N=P(c2ccccc2)(c2ccccc2)c2ccccc2)n(-c2ccccc2)c(=O)n1-c1ccccc1` yielded a TGI of 37.3 µM.

As for `O=C(NCCCN(CCCCN(CCCNC(=O)C(F)(F)F)Cc1ccccc1)Cc1ccccc1)C(F)(F)F`, the TGI turned out to be 22.3 µM.

`COc1ccc(C2(CC(C)O)SCCCS2)cc1` (stereo not given): the TGI is greater than 100 µM.

The molecule `Clc1ccc(-c2nn3c(-c4ccncc4)nnc3s2)cc1` gave a TGI greater than 100 µM.

In the case of `O=C1/C(=C\c2cccc(Oc3ccccc3)c2)S(=O)(=O)C(c2ccccc2)N1Cc1ccccc1` (stereo not given), the TGI worked out at 33.7 µM.

Consider `COc1ccc(C(OCC2OC(n3cc(C)c(=O)[nH]c3=O)CC2n2cc(Cn3cc(F)c(=O)[nH]c3=O)nn2)(c2ccccc2)c2ccccc2)cc1` (stereo not given), for which the TGI came to 21.5 µM.

Take `Cc1ccccc1C(O)(c1nccn1C)c1nccn1C`: the TGI is greater than 100 µM.

Turning to `C=CCn1c(=O)ccn(COCCO)c1=O`, the TGI is greater than 100 µM.

In the case of `Oc1ccccc1/C=N/c1nc2cc3sc(/N=C/c4ccccc4O)nc3cc2s1`, the TGI was greater than 100 µM.

For `CCCCC1c2c([nH]c3ccccc23)C2C(=O)N(c3ccc(OC)cc3)C(=O)C2C1CCC` (stereo not given), the TGI was greater than 10 µM.

The molecule `CCN(CC)CCOc1ccc(N2C(=O)c3cc(OC)c(OC)cc3C2=O)cc1` displayed a TGI greater than 100 µM.

In turn, `C(=N\NC1=NCCCN1)/c1ccc2ccccc2c1` returned a TGI of 32.4 µM.

`O=C(N=Nc1cc(Cl)ccc1Cl)NNc1cc(Cl)ccc1Cl` yielded a TGI of 29.9 µM.

`CCOC(=O)NC(=S)NN(C)C1=NCC(C)(C)S1` yielded a TGI greater than 100 µM.

Consider `O=c1c2cc3c(cc2[nH]c2ncccc12)OCO3`, for which the TGI was greater than 10 µM.

The molecule `Cc1csc(-c2cn(C)c3c2C(=O)C(N)=CC3=O)n1` showed a TGI greater than 100 µM.

The next assay concerns A549 NSCLC. As to the kind of experiment: NCI-60 cell line screen, 48 h.
`O=P(c1ccccc1)(c1ccccc1)N1O[C@@H](c2ccccc2)C=C[C@H]1c1ccccc1` yielded a TGI of 24 µM.

`COC(=O)[C@]12CC[C@H]3CN(C(=O)OCc4ccccc4)[C@H]([C@H]31)[C@H](c1ccco1)N2S(=O)(=O)c1ccc(C)cc1` yielded a TGI greater than 100 µM.

`CCCNC(=O)CCC(C)[C@H]1CCC2C3C(C[C@H](OC(C)=O)[C@@]21C)[C@@]1(C)CCC2(C[C@H]1C[C@H]3OC(C)=O)OOC1(CCC(C)CC1)OO2` (stereo not given in full) showed a TGI of 5.26 µM.

Molecule `CCCn1c(CN(Cc2nc3ccccc3n2CCC)Cc2nc3ccccc3n2CCC)nc2ccccc21` registered a TGI greater than 64.4 µM.

With `CSc1c(C#N)c(N)n2c1C(=O)N(c1ccccc1)C2=S`, the TGI is greater than 100 µM.

With `NNC(=O)c1ccc[n+](CCc2ccccc2)c1`, the TGI was greater than 100 µM.

Molecule `COc1cc(NS(C)(=O)=O)ccc1N1Cc2cnc3ccc4[nH]c(C)cc1c4c23` registered a TGI greater than 100 µM.

Regarding `C=C[C@@H]1C(CO)=CCC2[C@H]1CCC1C(C)(C)C(=O)CC[C@]21C` (stereo not given in full), the TGI was greater than 100 µM.

For `COc1ccc2cc3c4cc5c(cc4cc[n+]3cc2c1OC)OCO5`, the TGI was greater than 100 µM.

With `CCN(CCO)CC1COc2ccccc2O1` (stereo not given), the TGI was greater than 100 µM.

Take `C/C(CC1C2CCCC1C2)=N\NC(N)=O` (stereo not given): the TGI is greater than 100 µM.

Regarding `N#CC(C#N)=CNC(=S)c1ccncc1`, the TGI is greater than 100 µM.

Regarding `C1=CC2=CC=CC3c4nc5ccc6ccccc6c5nc4C(=C1)C23` (stereo not given), the TGI was greater than 100 µM.

On to `O=c1cc(N=P(c2ccccc2)(c2ccccc2)c2ccccc2)n(-c2ccccc2)c(=O)n1-c1ccccc1`, for which the TGI is 24.6 µM.

`O=C(NCCCN(CCCCN(CCCNC(=O)C(F)(F)F)Cc1ccccc1)Cc1ccccc1)C(F)(F)F` gave a TGI of 59.5 µM.

For `COc1ccc(C2(CC(C)O)SCCCS2)cc1` (stereo not given), the TGI is greater than 100 µM.

In turn, `Clc1ccc(-c2nn3c(-c4ccncc4)nnc3s2)cc1` displayed a TGI greater than 100 µM.

The molecule `O=C1/C(=C\c2cccc(Oc3ccccc3)c2)S(=O)(=O)C(c2ccccc2)N1Cc1ccccc1` (stereo not given) yielded a TGI greater than 100 µM.

On to `COc1ccc(C(OCC2OC(n3cc(C)c(=O)[nH]c3=O)CC2n2cc(Cn3cc(F)c(=O)[nH]c3=O)nn2)(c2ccccc2)c2ccccc2)cc1` (stereo not given), for which the TGI was greater than 100 µM.

`Cc1ccccc1C(O)(c1nccn1C)c1nccn1C`: the TGI is greater than 100 µM.

Turning to `C=CCn1c(=O)ccn(COCCO)c1=O`, the TGI was greater than 100 µM.

In the case of `Oc1ccccc1/C=N/c1nc2cc3sc(/N=C/c4ccccc4O)nc3cc2s1`, the TGI is greater than 100 µM.
